The record followed here is US20100183542A1, “Synergism Between Activated Immune Cells and Conventional Cancer Therapies” (UNIVERSITY OF SOUTH ALABAMA, priority 2006, published 2010).

Data set [1] deals with Hela cells. Briefly: Hela cells pre-sensitized with cytokines for 2 days, fresh medium 3 days, WST-1 on day 5 (Experiments 9, 10). It is filed as cell-based. Conditions: for effect on the maximum cytotoxic effect of IFN-γ: Experiment 9: in combination with IFN-γ. The procedure:
Hela cells were pre-sensitized with IFN-γ, and IFN-γ in combination with other cytokines for 2 days. The pre-sensitized Hela cells were then cultured with fresh complete RPMI 1640 for another 3 days. Cell viability was measured by WST-1 assay on day 5.
The pre-sensitized Hela cells were cultured with fresh complete RPMI 1640 for another 3 days. Cell viability was measured by WST-1 assay on day 5.

Data set [2] deals with Hela cells. Briefly: Hela cells pre-sensitized with cytokines, 4 Gy gamma radiation, WST-1 on day 5 (Experiments 7, 8, 11, 12, 13). The format is cell-based. The procedure:
Hela cells were pre-sensitized for 2 days with each cytokine listed on FIG. 29. The pre-sensitized Hela cells were thereafter trypsinzed, washed, and irradiated with 4 Gy of gamma radiation. The irradiated cells were plated in 96-well plate at 5000 cells per well in 200 μl of complete medium. Cell viability was measured by WST-1 reagent on day 5.
Hela cells were pre-sensitized for 2 days by individual cytokines, combinations or all cytokines. The pre-sensitized Hela cells were thereafter harvested, washed, and irradiated with 4 Gy of gamma radiation. The irradiated cells were plated in 96-well plate at 5000 cells per well in 200 μl of RPMI 1640 medium. Cell viability was measured by WST-1 assay on day 5.
Hela cells were pre-sensitized with various combinations of cytokines identified in FIG. 33. The pre-sensitized Hela cells were made single suspension and irradiated by 4 Gy of gamma radiation. The irradiated cells were plated in 96-well plate at 5000 cells per well in 200 μl RPMI 1640 medium. Cell viability was measured by WST-1 assay on day 5.
Hela cells were pre-sensitized for 2 days with CD4+ T cells, a combination of [IFN-γ/TNF-α/IL-2/Il-6], or a combination of all cytokines. The pre-sensitized cells were thereafter placed into a single suspension and irradiated by 4 Gy of gamma radiation. The irradiated cells were plated in 96-well plate at 5000 cells per well in 200 μl RPMI 1640 medium. Cell viability was measured by WST-1 assay on day 5.
Another experiment was performed similar to experiment 16, except that [IFN-γ/TNF-α] was used instead of the combination of [IFN-γ/TNF-α/Il-2/Il-6].
A general note: Formazan colour is commonly taken as a measure of viable cells.

On to TNF-α, for which, in the data set on Hela cells [1], the “effect on the maximum cytotoxic effect of IFN-γ” value is recorded as “added effect”. In the case of IFN-γ: cytokine, the “contribution to enhanced effect of gamma irradiation” value in the data set on Hela cells [2] (Experiment 7: each cytokine 2 days, 4 Gy) is listed as “major factor contributing to the enhanced effect of gamma irradiation”. In addition, the “synergistic effect with gamma radiation” value in the data set on Hela cells [2] (Experiment 11: 4 Gy) is “Synergistic effect”. As for GM-CSF: cytokine, the “effect on the maximum cytotoxic effect of IFN-γ” value with Hela cells [1] is listed as “added effect”.

B1: IFN-γ: cytokine (protein, UniProt P01579 24-161, looked up)
Interferon gamma: QDPYVKEAENLKKYFNAGHSDVADNGTLFLGILKNWKEESDRKIMQSQIVSFYFKLFKNFKDDQSIQKSVETIKEDMNVKFFNSNKKKRDDFEKLTNYSVTDLNVQRKAIHELIQVMAELSPAAKTGKRKRSQMLFRG
With B1, the “contribution to cytotoxicity of gamma irradiation” value in the data set on Hela cells [2] (Experiment 8: individual cytokines, combinations or all cytokines 2 days, 4 Gy) is reported as “contributes to enhance cytotoxicity of gamma irradiation”. For the same molecule, the contribution to cytotoxicity entry with Hela cells [1] (Experiment 9: 2 days pre-sensitization, 3 days fresh medium) was “contributes to enhance cytotoxicity of gamma irradiation”.
